In article PMC8682804 (Science signaling, 2021):

How the values were obtained:
[1] = target: T1, PTHR (Homo sapiens, UniProt Q03431); experiment: Time-course measurement of cAMP by FRET; type: cell-based; settings: comparison of PTH^WT and its diastereomers, fig. S1B
T1 sequence (Q03431 27-593): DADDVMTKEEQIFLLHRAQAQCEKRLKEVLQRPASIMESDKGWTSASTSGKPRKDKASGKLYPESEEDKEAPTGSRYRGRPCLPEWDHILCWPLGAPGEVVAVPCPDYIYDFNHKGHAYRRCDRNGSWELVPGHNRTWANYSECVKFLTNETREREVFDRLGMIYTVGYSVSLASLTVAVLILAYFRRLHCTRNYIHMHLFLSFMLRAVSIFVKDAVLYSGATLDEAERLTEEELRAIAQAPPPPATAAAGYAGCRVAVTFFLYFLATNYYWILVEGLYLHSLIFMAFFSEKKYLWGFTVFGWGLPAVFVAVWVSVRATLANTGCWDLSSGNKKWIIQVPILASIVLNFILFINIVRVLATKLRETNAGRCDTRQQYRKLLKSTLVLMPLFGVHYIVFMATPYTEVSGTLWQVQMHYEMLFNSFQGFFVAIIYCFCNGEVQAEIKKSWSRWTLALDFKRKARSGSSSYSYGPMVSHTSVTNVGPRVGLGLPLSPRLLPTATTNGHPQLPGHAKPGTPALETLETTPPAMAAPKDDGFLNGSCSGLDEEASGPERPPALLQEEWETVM

[2] = target: T2, PTHR^CFP and βarr-2^YFP (Homo sapiens, UniProt Q03431); experiment: Time-course of β-arr2 recruitment by FRET; type: cell-based; settings: comparison of PTH^WT and its diastereomers, fig. S1C
T2 sequence (Q03431 27-593): T1 sequence (Q03431 27-593)

[3] = target: PTHR in membranes of HEK-293-Gs-null cells (clone CL2) (UniProt Q03431); experiment: radioligand binding

| Substance | cAMP production time course [1] | interaction of PTHR with β-arr2, time course [2] | IC50 [3] [nM] |
| --- | --- | --- | --- |
| (D)-Asn([10])-PTH1–34 [PTH^10d] | indistinguishable increases in cAMP | stimulated the interaction of PTHR with β-arr2 | – |
| (D)-Leu(7)-PTH_(1–34)-NH2 (PTH^7d) (peptide) | – | – | 0.1 |
| PTH_(1–34) (PTH^WT), the synthetic N-terminal fragment of parathyroid hormone (peptide) | – | – | 0.1 |
